Data from patent US20240002786A1, “SHRINKABLE HYDROGELS” (THE BRIGHAM AND WOMEN'S HOSPITAL, INC., priority 2020, published 2024).

Test: Hydrogel disc shrinking capacity with polycation solutions
Description: Hydrogels were made from gelMA A or B, fish GelMA, and/or HAMA and were prepared at different concentrations. GelMA formulations were dissolved whilst stirring in MilliQ water at 37° C. for 2 h. HAMA formulations were dissolved into MilliQ water overnight under agitation. Both HAMA and gelMA solutions were supplemented with 0.1 wt % Irgacure 2959 (Sigma-Aldrich) prior to UV crosslinking. The prepared polymer solutions were cast in circular PDMS molds (diameter: 4.5 cm) and subsequently UV-irradiated (methacrylate conversion was determined to be >95%). Subsequently, a biopsy punch (Integra Miltex, various diameters) was used to cut cylindrical hydrogels of 2 mm in height.
Shrinking agents were dissolved overnight in either phosphate-buffered saline (170 mM of ionic strength, pH 7.4) or diluted or NaCl-supplemented phosphate buffer (17-700 mM ionic strengths, pH 7.4) for up to 2.0 wt %. Cut hydrogels were initially measured using Vernier calipers (standard error=30 μm) to determine their volumes and subsequently incubated in the various shrinking agent solutions (volume: 2 mL, n=3 for every condition). Unless stated otherwise, incubation was done at room temperature. Hydrogel diameter and height were monitored either over time to determine hydrogel shrinking kinetics or after full dehydration had occurred to determine maximum shrinking capacity (typically after 12 h).

For lysozyme, the hydrogel shrinking (isotonic conditions (170 mM of ionic strength and pH 7.4)) was “did not shrink at all” and the hydrogel shrinking (reduced ionic strength (85 mM, pH 7.4)) was “hydrogel shrinking was observed”.
